Assay results from US6337417B1, “N-phenyltetrahydrophthalamic acid derivatives, methods of producing same, and herbicides containing same as effective components” (Central Glass Co., Ltd., priority 1994, dated 2002).

Key:
Assay type in all cases: in vivo
Parameters in all cases: key: 5: completely killed; 4: seriously injured; 3: considerably injured; 2: somewhat injured; 1: slightly injured; 0: not injured (normally grown)
[1] = tested on: cockspur (Panicum crus-galli); assay: Experiment 8 foliage treatment: cockspur; settings: foliage spray of wettable powder suspension, evaluated 4 weeks after treatment
Protocol: (§1) Upon seedling stage (two- or three-leaved stage) of rice, cockspur (Panicum crus-galli), garden radish, aobiyu (slender amaranth, Amaranthus viridis) and mehishiba (henry crabgrass, Digitaria cliaris) which were grown on a cultivated soil put in pots of 1/15500 ares, a selected compound obtained in a manner analogous to Example 14, in suspended wettable powder, was sprayed to each plant. After that, the pots were kept in a glass chamber to allow each plant to grow, and after the lapse of 4 weeks from the treatment with the selected compounds the herbicidal effects were evaluated. The evaluation of the herbicidal effects was similarly conducted as to that of Experiment 1.

[2] = tested on: aobiyu (slender amaranth, Amaranthus viridis); assay: Experiment 8 foliage treatment: aobiyu; settings: foliage spray of wettable powder suspension, evaluated 4 weeks after treatment
Protocol: as §1

[3] = tested on: nobie (barnyardgrass, Echinochloa spp.); assay: Experiment 7 flooded soil treatment: nobie; settings: evaluated 4 weeks after treatment
Source text: (§2) Paddy soil (clay loam) was put into a pot so as to have a surface area of 1/15500 ares. Uniformly mixed seeds of several kinds of weeds, viz., nobie (barnyardgrass, Echinochloa spp.), broad-leaved weeds, hotarui (bulrush, Scirpus juncoides) and tamagayatsuri (small-flowered umbrellaplant, Cyperus difformis), were sown in the surface layer of the soil in each pot, and then paddy rice seedlings at the two- or three-leaved stage were transplanted into each pot to a depth of 2 cm, and water was fed into each pot so as to provide a 3 cm deep water layer on the soil surface. After 3 days, in other words at the initial stage of germination of nobie (barnyardgrass, Echinochloa spp.), a predetermined amount of a selected compound obtained in a manner analogous to Example 14 in the form of diluted aqueous solution was dropped into the water layer in each pot. After that, the pots were kept in a glass chamber to allow the paddy rice and the weeds to grow, and after the lapse of 4 weeks from the treatment with the selected compounds, the herbicidal effects and the degree of injury to the paddy rice were evaluated. The evaluation of the herbicidal effects was similarly conducted as that of Experiment 1.

[4] = tested on: paddy rice; assay: Experiment 7 flooded soil treatment: injury to paddy rice; settings: evaluated 4 weeks after treatment
Source text: as §2

[5] = tested on: broad-leaved weeds; assay: Experiment 7 flooded soil treatment: broad-leaved weeds; settings: evaluated 4 weeks after treatment
Source text: as §2

[6] = tested on: ooinutade (pale smartweed, Persicaria lapathifolia); assay: Experiment 9 foliage treatment: ooinutade; settings: foliage spray of wettable powder suspension, evaluated 4 weeks after treatment
Protocol: as §1, with “ichibi (velvetleaf, Abutilon theophrasti), onamomi (heartleaf cocklebur, Xanthium strumarium) (4L stage), noasagao (blue morningglory, Ipomoea indica)” for “rice, cockspur (Panicum crus-galli), garden radish, aobiyu (slender amaranth, Amaranthus viridis)”, “ooinutade (pale smartweed, Persicaria lapathifolia)” for “mehishiba (henry crabgrass, Digitaria cliaris)”, “1/8850” for “1/15500”, “as” for “as to”

[7] = tested on: ichibi (velvetleaf, Abutilon theophrasti); assay: Experiment 9 foliage treatment: ichibi; settings: foliage spray of wettable powder suspension, evaluated 4 weeks after treatment
Protocol: as §1, with “ichibi (velvetleaf, Abutilon theophrasti), onamomi (heartleaf cocklebur, Xanthium strumarium) (4L stage), noasagao (blue morningglory, Ipomoea indica)” for “rice, cockspur (Panicum crus-galli), garden radish, aobiyu (slender amaranth, Amaranthus viridis)”, “ooinutade (pale smartweed, Persicaria lapathifolia)” for “mehishiba (henry crabgrass, Digitaria cliaris)”, “1/8850” for “1/15500”, “as” for “as to”

[8] = tested on: rice; assay: Experiment 8 foliage treatment: rice; settings: foliage spray of wettable powder suspension, evaluated 4 weeks after treatment
Protocol: as §1

[9] = tested on: tamagayatsuri (small-flowered umbrellaplant, Cyperus difformis); assay: Experiment 7 flooded soil treatment: tamagayatsuri; settings: evaluated 4 weeks after treatment
Source text: as §2

[10] = tested on: noasagao (blue morningglory, Ipomoea indica); assay: Experiment 9 foliage treatment: noasagao; settings: foliage spray of wettable powder suspension, evaluated 4 weeks after treatment
Protocol: as §1, with “ichibi (velvetleaf, Abutilon theophrasti), onamomi (heartleaf cocklebur, Xanthium strumarium) (4L stage), noasagao (blue morningglory, Ipomoea indica)” for “rice, cockspur (Panicum crus-galli), garden radish, aobiyu (slender amaranth, Amaranthus viridis)”, “ooinutade (pale smartweed, Persicaria lapathifolia)” for “mehishiba (henry crabgrass, Digitaria cliaris)”, “1/8850” for “1/15500”, “as” for “as to”

[11] = tested on: onamomi (heartleaf cocklebur, Xanthium strumarium); assay: Experiment 9 foliage treatment: onamomi; settings: foliage spray of wettable powder suspension, evaluated 4 weeks after treatment
Protocol: as §1, with “ichibi (velvetleaf, Abutilon theophrasti), onamomi (heartleaf cocklebur, Xanthium strumarium) (4L stage), noasagao (blue morningglory, Ipomoea indica)” for “rice, cockspur (Panicum crus-galli), garden radish, aobiyu (slender amaranth, Amaranthus viridis)”, “ooinutade (pale smartweed, Persicaria lapathifolia)” for “mehishiba (henry crabgrass, Digitaria cliaris)”, “1/8850” for “1/15500”, “as” for “as to”

[12] = tested on: garden radish; assay: Experiment 8 foliage treatment: garden radish; settings: foliage spray of wettable powder suspension, evaluated 4 weeks after treatment
Protocol: as §1

[13] = tested on: mehishiba (henry crabgrass, Digitaria cliaris); assay: Experiment 8 foliage treatment: mehishiba; settings: foliage spray of wettable powder suspension, evaluated 4 weeks after treatment
Protocol: as §1

[14] = tested on: hotarui (bulrush, Scirpus juncoides); assay: Experiment 7 flooded soil treatment: hotarui; settings: evaluated 4 weeks after treatment
Source text: as §2

| SMILES | Herbicidal Effect cockspur ([1]; 40 g/10a) | Herbicidal Effect cockspur ([1]; 80 g/10a) | Herbicidal Effect aobiyu ([2]; 40 g/10a) | Herbicidal Effect aobiyu ([2]; 80 g/10a) | Herbicidal Effect nobie ([3]; 6.25 g/10a) | Herbicidal Effect nobie ([3]; 12.5 g/10a) | Injury of Paddy ([4]; 6.25 g/10a) | Injury of Paddy ([4]; 12.5 g/10a) | Herbicidal Effect broad-leaved weed ([5]; 6.25 g/10a) | Herbicidal Effect broad-leaved weed ([5]; 12.5 g/10a) | Herbicidal Effet ooinutade ([6]; 4 g/10a) | Herbicidal Effet ooinutade ([6]; 8 g/10a) | Herbicidal Effet ichibi ([7]; 4 g/10a) | Herbicidal Effet ichibi ([7]; 8 g/10a) | Herbicidal Effect rice ([8]; 40 g/10a) | Herbicidal Effect rice ([8]; 80 g/10a) | Herbicidal Effect tamagayatsuri ([9]; 6.25 g/10a) | Herbicidal Effect tamagayatsuri ([9]; 12.5 g/10a) | Herbicidal Effet noasagao ([10]; 4 g/10a) | Herbicidal Effet noasagao ([10]; 8 g/10a) | also measured |
| --- | --- | --- | --- | --- | --- | --- | --- | --- | --- | --- | --- | --- | --- | --- | --- | --- | --- | --- | --- | --- | --- |
| C#CC(C)Oc1cc(N(C(=O)C2=C(C(=O)OCCCC)CCCC2)C(=O)c2ccsc2)c(F)cc1Cl (stereo not shown) [compound 102] | 1 | 1 | 5 | 5 | 5 | 5 | 0.5 | 0.5 | 5 | 5 | 4 | 5 | 5 | 5 | 1 | 1 | 5 | 5 | 4 | 5 | Herbicidal Effet onamomi ([11]; 4 g/10a): 5; Herbicidal Effet onamomi ([11]; 8 g/10a): 5; Herbicidal Effect garden radish ([12]; 40 g/10a): 5; Herbicidal Effect garden radish ([12]; 80 g/10a): 5; Herbicidal Effect mehishiba ([13]; 40 g/10a): 1; Herbicidal Effect mehishiba ([13]; 80 g/10a): 1; Herbicidal Effect hotarui ([14]; 6.25 g/10a): 4; Herbicidal Effect hotarui ([14]; 12.5 g/10a): 4 |
| C#CC(C)Oc1cc(N(C(=O)C2=C(C(=O)OC)CCCC2)C(=O)c2cccs2)c(F)cc1Cl (racemic) [compound 91, N-[4-chloro-2-fluoro-5-(1-methylproparzyloxy)phenyl]-N-(2-thiophenecarboxy)-3,4,5,6-tetrahydrophthalamic acid methyl ester] | 1 | 1 | 5 | 5 | 5 | 5 | 0 | 0.5 | 5 | 5 | 5 | 5 | 5 | 5 | 1 | 1 | 5 | 5 | 4 | 5 | Herbicidal Effet onamomi ([11]; 4 g/10a): 4; Herbicidal Effet onamomi ([11]; 8 g/10a): 5; Herbicidal Effect garden radish ([12]; 40 g/10a): 5; Herbicidal Effect garden radish ([12]; 80 g/10a): 5; Herbicidal Effect mehishiba ([13]; 40 g/10a): 1; Herbicidal Effect mehishiba ([13]; 80 g/10a): 1; Herbicidal Effect hotarui ([14]; 6.25 g/10a): 4; Herbicidal Effect hotarui ([14]; 12.5 g/10a): 5 |
| C#CC(C)Oc1cc(N(C(=O)C2=C(C(=O)OC)CCCC2)C(=O)c2ccsc2)c(F)cc1Cl (stereo not shown) [Compound No. 100] | 1 | 1 | 5 | 5 | 5 | 5 | 0.5 | 0.5 | 5 | 5 | 5 | 5 | 5 | 5 | 1 | 1 | 5 | 5 | 5 | 5 | Herbicidal Effet onamomi ([11]; 4 g/10a): 5; Herbicidal Effet onamomi ([11]; 8 g/10a): 5; Herbicidal Effect garden radish ([12]; 40 g/10a): 5; Herbicidal Effect garden radish ([12]; 80 g/10a): 5; Herbicidal Effect mehishiba ([13]; 40 g/10a): 1; Herbicidal Effect mehishiba ([13]; 80 g/10a): 1; Herbicidal Effect hotarui ([14]; 6.25 g/10a): 5; Herbicidal Effect hotarui ([14]; 12.5 g/10a): 5 |
| C#CC(C)Oc1cc(N(C(=O)C2=C(C(=O)OC)CCCC2)C(=O)c2ccc(Cl)s2)c(F)cc1Cl (stereo not shown) [compound 97] | 1 | 1 | 4 | 5 | 5 | 5 | 0 | 0 | 5 | 5 | 4 | 5 | 5 | 5 | 1 | 1 | 4 | 4 | 4 | 4 | Herbicidal Effet onamomi ([11]; 4 g/10a): 4; Herbicidal Effet onamomi ([11]; 8 g/10a): 4; Herbicidal Effect garden radish ([12]; 40 g/10a): 5; Herbicidal Effect garden radish ([12]; 80 g/10a): 5; Herbicidal Effect mehishiba ([13]; 40 g/10a): 1; Herbicidal Effect mehishiba ([13]; 80 g/10a): 1; Herbicidal Effect hotarui ([14]; 6.25 g/10a): 4; Herbicidal Effect hotarui ([14]; 12.5 g/10a): 4 |
